One experiment deals with T1, 5-HT2 receptors (Rattus norvegicus, UniProt P14842).
T1 construct: The caudal arteries were dissected free from connective tissue and cut into spiral strips; from tissue; host or cells: rat caudal artery, spiral strips
In words: Vasoconstriction experiment: relaxation of rat caudal artery strips precontracted with 5-HT. It counts as cell-based, rat (male Sprague-Dawley). The note with it: precontracted with 5-HT 3×10^-6 M; concentration causing one half of maximum relaxation (papaverine 10^-4 M = maximum); 37 °C. How it is done:
(§1) Vasoconstriction Experiment
(§2) Contractions of the rat caudal ateries were investigated by the method of Van Neuten et al. (J. Pharmacol. Exp. Ther., 218, 217-230, 1981).
(§3) Male Sprague-Dawley rats, each weighing approximately 500 g, were sacrificed by rapid exsanguination. The caudal arteries were dissected free from connective tissue and cut into spiral strips (2×20 mm). The resulting preparations were mounted in organ baths, each containing 10 ml of Tyrode solution maintained at 37° C., and then gassed with a mixture of 95% by volume O2 and 5% CO2. The preparations were allowed to equilibrate for 1 hour before being used in the experiment.
(§4) An initial optimum resting tension of 0.5 g was applied to the preparations, and isometric contractions were recorded with force-displacement transducers. The relaxant effects of the test compounds were determined on preparations which had been precontracted with 5-HT (5-hydroxytryptamine) (3×10^-6 M), which is an agonist of the 5-HT2 receptors, or phenylephrine (10^-6 M), which is an agonist of the adrenaline-α1 receptors. After the constractile response to the 5-HT or the phenylephrine had reached a steady state, the test compound was added cumulatively to the bathing medium. At the end of the experiments, papaverine (10^-4 M) was added to produce the maximum relaxation.
(§5) The relaxation induced by each test compound was calculated as a percentage of the maximum relaxation induced by 10^-4 M of papaverine. The concentrations causing one half of the maximum relaxation (IC50) were calculated by the method of least squares.

The test system of another experiment is adrenaline-α1 receptors. As to the kind of experiment: Vasoconstriction experiment: relaxation of rat caudal artery strips precontracted with phenylephrine. It counts as cell-based, rat (male Sprague-Dawley). Conditions: precontracted with phenylephrine 10^-6 M; concentration causing one half of maximum relaxation (papaverine 10^-4 M = maximum); 37 °C; read-out: IC50 adrenalin-α1. The method, then:
as §1, §2, §3, §4, §5

A word on the IC50: it is the concentration at which inhibition is half-maximal.

Counter-ions that a name gives are not always drawn.

T1 sequence (P14842 whole entry): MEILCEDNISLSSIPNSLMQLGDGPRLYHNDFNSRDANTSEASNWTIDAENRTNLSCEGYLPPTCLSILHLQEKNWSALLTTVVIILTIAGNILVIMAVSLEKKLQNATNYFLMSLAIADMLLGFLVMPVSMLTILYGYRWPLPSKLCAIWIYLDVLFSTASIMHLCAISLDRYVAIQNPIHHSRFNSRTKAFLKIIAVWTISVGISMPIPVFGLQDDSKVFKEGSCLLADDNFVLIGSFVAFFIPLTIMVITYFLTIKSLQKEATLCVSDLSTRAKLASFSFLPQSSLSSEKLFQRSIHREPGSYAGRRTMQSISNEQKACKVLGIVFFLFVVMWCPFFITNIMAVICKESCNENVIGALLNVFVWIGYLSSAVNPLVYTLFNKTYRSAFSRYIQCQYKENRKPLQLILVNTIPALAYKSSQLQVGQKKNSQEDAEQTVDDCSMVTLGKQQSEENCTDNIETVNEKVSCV

Regarding `COc1cccc(CCc2ccccc2OCCC2CCCCN2C)c1` (stereo not shown) [Example 48, 2-(2-{2-[2-(3-Methoxyphenyl)ethyl]phenoxy}ethyl)-1-methylpiperidine hydrochloride], the results for the IC50 against 5-HT2 receptors and in the experiment on adrenaline-α1 receptors were 3.7 nM and 2500 nM, respectively.
In the same order, the values of `COc1cccc(CCc2ccccc2OCC2CCCN(C)C2)c1` (stereo not shown) [Example 50, 3-{2-[2-(3-Methoxyphenyl)ethyl]phenoxymethyl}-1-methylpiperidine hydrochloride] are 4.3 nM and 3700 nM.
On to `COc1cccc(CCc2ccccc2OC[C@@H]2CCCN2C)c1` [Example 58, (S)-2-{2-[2-(3-Methoxyphenyl)ethyl]phenoxymethyl}-1-methylpyrrolidine hydrochloride], for which the figures for the IC50 on 5-HT2 receptors and with adrenaline-α1 receptors were 5 nM and 4900 nM, respectively.
With `CN1CCCC1CCOc1ccccc1CCc1ccccc1F` (stereo not shown) [Example 97, 2-(2-{2-[2-(2-Fluorophenyl)ethyl]phenoxy}ethyl)-1-methylpyrrolidine hydrochloride], the IC50 against 5-HT2 receptors came to 6.5 nM; with adrenaline-α1 receptors, 860 nM.
In the case of `CN1CCCC1CCOc1ccccc1CCc1cccc(Br)c1` (stereo not shown) [Example 98, 2-(2-{2-[2-(3-Bromophenyl)ethyl]phenoxy}ethyl)-1-methylpyrrolidine hydrochloride], the IC50 against 5-HT2 receptors was determined as 5.4 nM; with adrenaline-α1 receptors, 2200 nM.
As to `CCOc1cccc(CCc2ccccc2OCCC2CCCN2C)c1` (stereo not shown) [Example 99, 2-(2-{2-[2-(3-Ethoxyphenyl)ethyl]phenoxy}ethyl)-1-methylpyrrolidine hydrochloride], the results for the IC50 against 5-HT2 receptors and in the experiment on adrenaline-α1 receptors were 6.1 nM and 1300 nM, respectively.
In the same order, the values of `CCOc1ccc(CCc2ccccc2OCCC2CCCN2C)cc1` (stereo not shown) [Example 101, 2-(2-{2-[2-(4-Ethoxyphenyl)ethyl]phenoxy}ethyl)-1-methylpyrrolidine hydrochloride] are 3.7 nM and 3700 nM.
For `CN1CCCC1CCOc1ccccc1CCc1ccccc1C#N` (stereo not shown) [Example 108, 2-(2-{2-[2-(2-Cyanophenyl)ethyl]phenoxy}ethyl)-1-methylpyrrolidine hydrochloride] the same measures were 2.2 nM and 1700 nM.
In the same order, the values of `COc1cccc(CCc2ccccc2OCC[C@@H]2CCCN2C)c1` [Example 113, (S)-2-(2-{2-[2-(3-Methoxyphenyl)ethyl]phenoxy}ethyl)-1-methylpyrrolidine hydrochloride] are 2.2 nM and 1200 nM.
`CN1CCC[C@H]1CCOc1ccccc1CCc1cccc(OC(F)F)c1` [Example 116, (S)-2-(2-{2-[2-(3-Difluoromethoxyphenyl)ethyl]phenoxy}ethyl)-1-methylpyrrolidine hydrochloride] came in with an IC50 against 5-HT2 receptors of 2.2 nM.
Take `COc1cc(CCc2ccccc2OCC[C@@H]2C[C@@H](O)CN2C)cc(OC)c1` [Example 118, (2R,4R)-4-hydroxy-2-(2-{2-[2-(3,5-dimethoxyphenyl)ethyl]phenoxy}ethyl)-1-methylpyrrolidine]: the IC50 on 5-HT2 receptors worked out at 2.6 nM; in the experiment with adrenaline-α1 receptors it was 5400 nM.
On to `COc1cccc(CCc2ccccc2OC[C@H]2CCCNC2)c1` [Example 120, (S)-3-{2-[2-(3-Methoxyphenyl)ethyl]phenoxymethyl}piperidine hydrochloride], for which, at 5-HT2 receptors, the IC50 came out at 4.2 nM.
Turning to `COc1cccc(CCc2ccccc2OC[C@H]2CCCN(C)C2)c1` [Example 121, (S)-3-{2-[2-(3-Methoxyphenyl)ethyl]phenoxymethyl}-1-methylpiperidine hydrochloride], the IC50 against 5-HT2 receptors was found to be 2.2 nM.
Consider `FC(F)Oc1cccc(CCc2ccccc2OCC2CCCNC2)c1` (stereo not shown) [Example 123, 3-{2-[2-(3-Difluoromethoxyphenyl)ethyl]phenoxymethyl}piperidine hydrochloride], for which, at 5-HT2 receptors, the midpoint of inhibition, the IC50, lay at 5.7 nM.
Consider `CN1CCCC(COc2ccccc2CCc2cccc(OC(F)F)c2)C1` (stereo not shown) [Example 124, 3-{2-[2-(3-Difluoromethoxyphenyl)ethyl]phenoxymethyl}-1-methylpiperidine hydrochloride], for which, on 5-HT2 receptors, the IC50 stood at 4.6 nM.

These data come from patent US5556864A, “α-ω-diarylalkane compounds serotonin-2 receptor agonists” (Sankyo Company, Limited, priority 1992, dated 1996).
